Reference: paper PMC3349093, “Immobilized Horseradish Peroxidase on Discs of Polyvinyl Alcohol-Glutaraldehyde Coated with Polyaniline” (The Scientific World Journal, 2012)

Tested on: T1, soluble HRP (horseradish peroxidase)
T1 construct: gene PRXC1A; soluble (free) enzyme, gift of Dr. Elba Bon (UFRJ)
Experiment: spectrophotometric, purpurogallin formation at […] nm, nonlinear hyperbolic fit
Assay type: biochemical, Armoracia rusticana
Settings: soluble enzyme; co-substrate H2O2 (0.25 mL of 5 mM); pyrogallol 4.0-48.7 mM; 28 °C; pH of kinetics not clearly stated (4.5 or 7.0)

Km: 5.47 ± 0.71 mM
Compound: Oc1cccc(O)c1O [pyrogallol]
